Data published in paper PMC3869807 (PLoS ONE, 2013).
“And” between values parts separate entries of the source, which are not always exact repeats. Equal values may be shown once.

Key:
[1] = molecular target: T1, µ-opioid receptor (Homo sapiens, UniProt P35372); test: cell-based; type: cell-based; design: host or cells: U2OS
[2] = molecular target: T1, µ-opioid receptor; test: biochemical; type: binding; design: host or cells: U2OS (membrane preparation)
[3] = molecular target: T1, µ-opioid receptor; test: biochemical; type: binding; design: host or cells: U2OS (membrane preparation); remark: listed apart in the source
[4] = molecular target: T1, µ-opioid receptor; test: biochemical; design: host or cells: U2OS (membrane preparation)

T1 sequence (P35372 whole entry): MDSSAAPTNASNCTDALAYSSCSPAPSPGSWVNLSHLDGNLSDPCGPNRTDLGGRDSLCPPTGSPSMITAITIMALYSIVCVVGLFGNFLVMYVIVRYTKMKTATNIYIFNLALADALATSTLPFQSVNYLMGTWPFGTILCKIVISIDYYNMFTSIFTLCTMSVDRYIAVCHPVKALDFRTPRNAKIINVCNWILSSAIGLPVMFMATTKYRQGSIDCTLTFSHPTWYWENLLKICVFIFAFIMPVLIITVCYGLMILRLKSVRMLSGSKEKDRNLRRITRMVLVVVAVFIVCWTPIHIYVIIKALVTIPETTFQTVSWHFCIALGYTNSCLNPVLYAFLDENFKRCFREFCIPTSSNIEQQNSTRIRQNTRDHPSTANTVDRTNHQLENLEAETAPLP

SMILES | β-arrestin recruitment that was PTX sensitive [1] | Ki ([2]; GRK2 moi 5 KH) [pM] | Ki ([2]; Untransduced KH) [pM] | Ki ([3]; GRK2 moi 5 KL) [pM] | Ki ([3]; Untransduced KL) [pM] | Emax [1] [%] | Emax ([1]; U2OS) [%] | EC50 ([1]; β-fun 1 nM EC50) [pM] | EC50 ([1]; β-fun 10 nM EC50) [pM] | Emax [4] | EC50 ([4]; EC50)
C[C@@H](NC(=O)[C@@H](N)Cc1ccc(O)cc1)C(=O)NCC(=O)N(C)[C@@H](Cc1ccccc1)C(=O)NCCO [DAMGO, [D-Ala^2, MePhe^4, gly^5 –ol]-enkephalin] | 60–70% |  |  |  |  |  |  |  |  |  | 
CC(=O)N[C@@H](Cc1ccccc1)C(=O)NCC(C)(C)NC(=O)[C@@H](N)Cc1ccc(O)cc1.Cl [Pfizer comp 1, 2-(L-Tyrosylamino)-1-[(N-acetyl-L-phenylalanyl)-amino]-2-methylpropane hydrochloride] | 60–70% | 51.3 | 47.9 | 21900 | 42700 | 99±8 | 106 ± 4 | 1380 | 2240 | 103% and 100±4% | 219 pM and 170 pM
NC(=O)[C@H](Cc1ccccc1)NC(=O)[C@H](Cc1ccccc1)NC(=O)[C@@H]1CCCN1C(=O)[C@@H](N)Cc1ccc(O)cc1 [Endomorphin 2, endomorphin 2] |  |  |  |  |  | 74±4 | 69 ± 3 |  |  | 104% and 101±2% | 
COc1ccc2c3c1O[C@H]1C(=O)CC[C@@]4(O)[C@@H](C2)N(C)CC[C@]314 [Oxycodone, oxycodone] | 60–70% |  |  |  |  |  |  |  |  | 95% and 104±2% | 
